What follows are compounds tested against cDNA-expressed human hepatic CYP3A4 (Homo sapiens (Human), UniProt P08684) (assay: Measurement of CYP (IC50 of P450 CYP3A4), BFC substrate). Details: 20 minutes.
Sequence of cDNA-expressed human hepatic CYP3A4 (P08684 whole entry): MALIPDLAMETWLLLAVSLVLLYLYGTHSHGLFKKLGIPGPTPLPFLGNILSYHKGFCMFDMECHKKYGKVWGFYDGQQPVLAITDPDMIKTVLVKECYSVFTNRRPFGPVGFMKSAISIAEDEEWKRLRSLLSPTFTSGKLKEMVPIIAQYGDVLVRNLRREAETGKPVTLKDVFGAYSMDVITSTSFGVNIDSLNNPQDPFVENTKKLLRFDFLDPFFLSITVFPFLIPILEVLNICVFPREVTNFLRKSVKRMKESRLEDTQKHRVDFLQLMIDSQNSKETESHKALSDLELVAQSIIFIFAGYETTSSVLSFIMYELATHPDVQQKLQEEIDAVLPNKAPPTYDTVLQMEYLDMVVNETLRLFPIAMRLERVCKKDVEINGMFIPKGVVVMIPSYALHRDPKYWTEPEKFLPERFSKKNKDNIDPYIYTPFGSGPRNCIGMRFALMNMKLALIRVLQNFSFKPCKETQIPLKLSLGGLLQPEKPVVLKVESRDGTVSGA
Assay type: in vitro ADME
Experimental: The compounds of the present invention had lower P450 CYP3A4 inhibitory activity (higher IC50). Lower CYP3A4 inhibitory activity means that the compounds of the present invention cause fewer side-effects from the pharmacological point of view.
This assay was performed in a 200 l volume in 96-well microtiter plates using cDNA-expressed human hepatic CYP3A4 (supersome, BD Gentest™ #456202). As a substrate for CYP3A4, 7-benzyloxy-4-trifluoromethyl-coumarin (BFC) was used. The compounds of Examples 1 to 5 and the substrate BFC were dissolved in 100% acetonitrile. The final volume of acetonitrile of the incubation mixture was less than 1% (volume/volume). A potassium phosphate buffer (pH 7.4, final concentration 0.1M), MgCl2 (final concentration 8.3 mM), EDTA (final concentration 1.67 mM), an inventive compound stock solution, CYP3A4 supersome, and NADPH (final concentration 0.25 mM) were added to each well. The reaction was initiated by adding the substrate (BFC, final concentration 30 µM) at 37. The incubation was performed for 20 minutes and then the reaction was terminated by the addition of 75 μl of acetonitrile: 0.5 M tris-base=4:1 (volume/volume).
Then, a fluorescent signal was measured using a fluorometer. A BFC metabolite, 7-hydroxy-4-trifluoromethyl-coumarin, was measured using an excitation wavelength of 409 nm and an emission wavelength of 530 nm.
With `C=CCN1CC(=O)N2[C@@H](Cc3ccc(O)cc3)C(=O)N(Cc3cccc4c(-c5cccc(C(=O)Nc6ccccc6)c5)cn(C)c34)C[C@@H]2N1C(=O)NCc1ccccc1` [Compound D-14] the IC50 was 2.13 µM. Compound `C=CCN1CC(=O)N2[C@@H](Cc3ccc(O)cc3)C(=O)N(Cc3cccc4c(C(=O)N(C)CC(=O)N5CCN(C)CC5)cn(C)c34)C[C@@H]2N1C(=O)NCc1ccccc1` [Compound F-32] has an IC50 of 5.04 µM. With `C=CCN1CC(=O)N2[C@@H](Cc3ccc(O)cc3)C(=O)N(Cc3cccc4c(C(=O)NN5CCCCC5)cn(C)c34)C[C@@H]2N1C(=O)NCc1ccccc1` [Compound F-57] the IC50 was 4.78 µM. `C=CCN1CC(=O)N2[C@@H](Cc3ccc(O)cc3)C(=O)N(Cc3cccc4c(C(=O)N(C)CCN5CCN(C)CC5)cn(C)c34)C[C@@H]2N1C(=O)NCc1ccccc1` [Compound F-28] was tested, and the IC50 was 7.8 µM. Compound `C=CCN1CC(=O)N2C(Cc3ccc(O)cc3)C(=O)N(Cc3cccc4c(C(=O)Nc5ccc(NCCN(C(C)C)C(C)C)nc5)cn(C)c34)CC2N1C(=O)NCc1ccccc1` (centres unmarked) [Compound G-25] has an IC50 of 4.05 µM. In the case of `C=CCN1CC(=O)N2[C@@H](Cc3ccc(O)cc3)C(=O)N(Cc3cccc4c(C(=O)NCCN(C)C)cn(C)c34)C[C@@H]2N1C(=O)NCc1ccccc1` [Compound F-13], the IC50 is reported as 7.87 µM. For `C=CCN1CC(=O)N2C(CN(Cc3cccc4c(C(=O)Nc5ccc(NCCN6CCC(O)CC6)nc5)cn(C)c34)C(=O)[C@@H]2Cc2ccc(O)cc2)N1C(=O)NCc1ccccc1` (some centres unmarked) [Compound G-29], the IC50 was 5.8 µM. In the case of `C=CCN1CC(=O)N2[C@@H](Cc3ccc(O)cc3)C(=O)N(Cc3cccc4c(C(=O)N5CCC6CN(C)CC65)cn(C)c34)C[C@@H]2N1C(=O)NCc1ccccc1` (some centres unmarked) [Compound E-69], the IC50 is reported as 4.49 µM. With `C=CCN1CC(=O)N2[C@@H](Cc3ccc(O)cc3)C(=O)N(Cc3cccc4c(C(=O)NN5CCN(c6ccccn6)CC5)cn(C)c34)C[C@@H]2N1C(=O)NCc1ccccc1` [Compound E-38] the IC50 was 2.48 µM. With `C=CCN1CC(=O)N2[C@@H](Cc3ccc(O)cc3)C(=O)N(Cc3cccc4c(-c5ccc(NC(=O)c6ccc(N(CC)CC)cc6)cc5)cn(C)c34)C[C@@H]2N1C(=O)NCc1ccccc1` [Compound D-57] the IC50 was greater than 25 µM. `C=CCN1CC(=O)N2[C@@H](Cc3ccc(O)cc3)C(=O)N(Cc3cccc4c(C(=O)N5CCN6CCN(C(C)=O)CC6C5)cn(C)c34)C[C@@H]2N1C(=O)NCc1ccccc1` (some centres unmarked) [Compound E-44] gave an IC50 of 15 µM. With `C=CCN1CC(=O)N2[C@@H](Cc3ccc(O)cc3)C(=O)N(Cc3cccc4c(C(=O)N(C)NC)cn(C)c34)C[C@@H]2N1C(=O)NCc1ccccc1` [Compound F-53] the IC50 was 2.33 µM. Compound `C=CCN1CC(=O)N2[C@@H](Cc3ccc(O)cc3)C(=O)N(Cc3cccc4c(C(=O)NC5CCN(CCCO)CC5)cn(C)c34)C[C@@H]2N1C(=O)NCc1ccccc1` [Compound F-63] has an IC50 of 9.71 µM. Work on `C=CCN1CC(=O)N2[C@@H](Cc3ccc(O)cc3)C(=O)N(Cc3cccc4c(C(=O)NCCN5CCN(C)CC5)cn(C)c34)C[C@@H]2N1C(=O)NCc1ccccc1` [Compound F-27] yielded an IC50 of 11.5 µM. For `C=CCN1CC(=O)N2[C@@H](Cc3ccc(O)cc3)C(=O)N(Cc3cccc4c(C(=O)NC5CCN(C(=O)CCO)CC5)cn(C)c34)C[C@@H]2N1C(=O)NCc1ccccc1` [Compound F-65], the IC50 was 6.87 µM. Work on `C=CCN1CC(=O)N2[C@@H](Cc3ccc(O)cc3)C(=O)N(Cc3cccc4c(C(=O)N5CCN(CCO)CC5)cn(C)c34)C[C@@H]2N1C(=O)NCc1ccccc1` [Compound E-9] yielded an IC50 of 6.82 µM. Compound `C=CCN1CC(=O)N2[C@@H](Cc3ccc(O)cc3)C(=O)N(Cc3cccc4c(C(=O)NN5CCOCC5)cn(C)c34)C[C@@H]2N1C(=O)NCc1ccccc1` [Compound F-58] has an IC50 of 22.3 µM. Work on `C=CCN1CC(=O)N2[C@@H](Cc3ccc(O)cc3)C(=O)N(Cc3cccc4c(C(=O)NCCCN5CCN(C)CC5)cn(C)c34)C[C@@H]2N1C(=O)NCc1ccccc1` [Compound F-30] yielded an IC50 of 2.54 µM. With `C=CCN1CC(=O)N2[C@@H](Cc3ccc(O)cc3)C(=O)N(Cc3cccc4c(C(=O)N5CC(O)C5)cn(C)c34)C[C@@H]2N1C(=O)NCc1ccccc1` [Compound E-70] the IC50 was 18.3 µM. `C=CCN1CC(=O)N2[C@@H](Cc3ccc(O)cc3)C(=O)N(Cc3cccc4c(C(=O)N5CCN(CCCO)CC5)cn(C)c34)C[C@@H]2N1C(=O)NCc1ccccc1` [Compound E-11] showed an IC50 of 11.3 µM. In the case of `C=CCN1CC(=O)N2[C@@H](Cc3ccc(O)cc3)C(=O)N(Cc3cccc4c(C(=O)N5CCC(N(C)C)CC5)cn(C)c34)C[C@@H]2N1C(=O)NCc1ccccc1` [Compound E-61], the IC50 is reported as 2.23 µM. Compound `C=CCN1CC(=O)N2[C@@H](Cc3ccc(O)cc3)C(=O)N(Cc3cccc4c(-c5ccc(NC(=O)CCCCCCC)cc5)cn(C)c34)C[C@@H]2N1C(=O)NCc1ccccc1` [Compound D-52] has an IC50 of 21.7 µM. With `C=CCN1CC(=O)N2[C@@H](Cc3ccc(O)cc3)C(=O)N(Cc3cccc4c(C(=O)NCCCO)cn(C)c34)C[C@@H]2N1C(=O)NCc1ccccc1` [Compound F-4] the IC50 was 16.2 µM. In the case of `C=CCN1CC(=O)N2[C@@H](Cc3ccc(O)cc3)C(=O)N(Cc3cccc4c(C(=O)N5CCC(O)CC5)cn(C)c34)C[C@@H]2N1C(=O)NCc1ccccc1` [Compound E-51], the IC50 is reported as 10.7 µM. Compound `C=CCN1CC(=O)N2[C@@H](Cc3ccc(O)cc3)C(=O)N(Cc3cccc4c(C(=O)NCCCN(C)C)cn(C)c34)C[C@@H]2N1C(=O)NCc1ccccc1` [Compound F-18] has an IC50 of 17.9 µM. For `C=CCN1CC(=O)N2[C@@H](Cc3ccc(O)cc3)C(=O)N(Cc3cccc4c(C(=O)N5CCCN(C)CC5)cn(C)c34)C[C@@H]2N1C(=O)NCc1ccccc1` [Compound E-42], the IC50 was 3.63 µM. Compound `C=CCN1CC(=O)N2[C@@H](Cc3ccc(O)cc3)C(=O)N(Cc3cccc4c(C(=O)N5CCN(CCN6CCCCC6)CC5)cn(C)c34)C[C@@H]2N1C(=O)NCc1ccccc1` [Compound E-24] has an IC50 of 5.53 µM. Work on `C=CCN1CC(=O)N2[C@@H](Cc3ccc(O)cc3)C(=O)N(Cc3cccc4c(C(=O)NNc5ccccc5)cn(C)c34)C[C@@H]2N1C(=O)NCc1ccccc1` [Compound F-60] yielded an IC50 of 6.8 µM. Compound `C=CCN1CC(=O)N2[C@@H](Cc3ccc(O)cc3)C(=O)N(Cc3cccc4c(C(=O)NCCN(CC)CC)cn(C)c34)C[C@@H]2N1C(=O)NCc1ccccc1` [Compound F-14] has an IC50 of 3.64 µM. `C=CCN1CC(=O)N2[C@@H](Cc3ccc(O)cc3)C(=O)N(Cc3cccc4c(C(=O)N5CCN(S(=O)(=O)CC)CC5)cn(C)c34)C[C@@H]2N1C(=O)NCc1ccccc1` [Compound E-16] was tested, and the IC50 was 2.82 µM. `C=CCN1CC(=O)N2[C@@H](Cc3ccc(O)cc3)C(=O)N(Cc3cccc4c(C(=O)NN5CCN(C6CCCC6)CC5)cn(C)c34)C[C@@H]2N1C(=O)NCc1ccccc1` [Compound F-59] was tested, and the IC50 was 2.39 µM. With `C=CCN1CC(=O)N2[C@@H](Cc3ccc(O)cc3)C(=O)N(Cc3cccc4c(C(=O)NCCCC(=O)OC)cn(C)c34)C[C@@H]2N1C(=O)NCc1ccccc1` [Compound F-23] the IC50 was 3.46 µM. `C=CCN1CC(=O)N2C(CN(Cc3cccc4c(C(=O)Nc5ccc(NCC(O)CO)nc5)cn(C)c34)C(=O)[C@@H]2Cc2ccc(O)cc2)N1C(=O)NCc1ccccc1` (some centres unmarked) [Compound G-21] showed an IC50 of 2.55 µM. Work on `C=CCN1CC(=O)N2[C@@H](Cc3ccc(O)cc3)C(=O)N(Cc3cccc4c(C(=O)N(C)CCn5ccnc5C)cn(C)c34)C[C@@H]2N1C(=O)NCc1ccccc1` [Compound F-36] yielded an IC50 of 2.48 µM. Work on `C=CCN1CC(=O)N2[C@@H](Cc3ccc(O)cc3)C(=O)N(Cc3cccc4c(-c5cccc(C(=O)Nc6ccc(N7CCN(c8ccc(OC)cc8)CC7)cc6)c5)cn(C)c34)C[C@@H]2N1C(=O)NCc1ccccc1` [Compound D-25] yielded an IC50 greater than 25 µM.

From patent US8940739B2, “Compound of a reverse-turn mimetic and a production method and use therefor” (JW Pharmaceutical Corporation, priority 2010, dated 2015)
